Tested on: P12-Ichikawa
Experiment: cell viability relative to DMSO control; higher = less cytotoxic
Settings: 48 h
How it was run: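 Three leukemia lines were tested: NOMO1 and SEM at 500 cells/well and P12-Ichikawa at 1000 cells/well. Each was adapted for at least four passages in each medium and seeded in 5 μl in 1536-well plates, and library compounds in DMSO were pin-dosed from 47 μM to 0.79 nM in 11 threefold steps. After 48 h at 37°C, CellTiter-Glo One luminescence was read. Viability is a percentage relative to DMSO wells on each plate, with cell-free wells as background.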

[1] = HPLM + 10% dialyzed FBS, 0.000781 µM
[2] = HPLM + 10% dialyzed FBS, 0.00234 µM
[3] = HPLM + 10% dialyzed FBS, 0.00702 µM
[4] = HPLM + 10% dialyzed FBS, 0.0211 µM
[5] = HPLM + 10% dialyzed FBS, 0.0632 µM
[6] = HPLM + 10% dialyzed FBS, 0.19 µM
[7] = HPLM + 10% dialyzed FBS, 0.569 µM
[8] = HPLM + 10% dialyzed FBS, 1.71 µM
[9] = HPLM + 10% dialyzed FBS, 5.12 µM
[10] = HPLM + 10% dialyzed FBS, 15.4 µM
[11] = HPLM + 10% dialyzed FBS, 46.1 µM
[12] = RPMI 5 mM glucose + 10% FBS, 0.000781 µM
[13] = RPMI 5 mM glucose + 10% FBS, 0.00234 µM
[14] = RPMI 5 mM glucose + 10% FBS, 0.00702 µM
[15] = RPMI 5 mM glucose + 10% FBS, 0.0211 µM
[16] = RPMI 5 mM glucose + 10% FBS, 0.0632 µM
[17] = RPMI 5 mM glucose + 10% FBS, 0.19 µM
[18] = RPMI 5 mM glucose + 10% FBS, 0.569 µM
[19] = RPMI 5 mM glucose + 10% FBS, 1.71 µM
[20] = RPMI 5 mM glucose + 10% FBS, 5.12 µM
[21] = RPMI 5 mM glucose + 10% FBS, 15.4 µM
[22] = RPMI 5 mM glucose + 10% FBS, 46.1 µM
[23] = RPMI 5 mM glucose + 10% dialyzed FBS, 0.000781 µM
[24] = RPMI 5 mM glucose + 10% dialyzed FBS, 0.00234 µM
[25] = RPMI 5 mM glucose + 10% dialyzed FBS, 0.00702 µM
[26] = RPMI 5 mM glucose + 10% dialyzed FBS, 0.0211 µM
[27] = RPMI 5 mM glucose + 10% dialyzed FBS, 0.0632 µM
[28] = RPMI 5 mM glucose + 10% dialyzed FBS, 0.19 µM
[29] = RPMI 5 mM glucose + 10% dialyzed FBS, 0.569 µM
[30] = RPMI 5 mM glucose + 10% dialyzed FBS, 1.71 µM
[31] = RPMI 5 mM glucose + 10% dialyzed FBS, 5.12 µM
[32] = RPMI 5 mM glucose + 10% dialyzed FBS, 15.4 µM
[33] = RPMI 5 mM glucose + 10% dialyzed FBS, 46.1 µM

Structure (SMILES)	cell viability [1]	cell viability [2]	cell viability [3]	cell viability [4]	cell viability [5]	cell viability [6]	cell viability [7]	cell viability [8]	cell viability [9]	cell viability [10]	cell viability [11]	cell viability [12]	cell viability [13]	cell viability [14]	cell viability [15]	cell viability [16]	cell viability [17]	cell viability [18]	cell viability [19]	cell viability [20]	cell viability [21]	cell viability [22]	cell viability [23]	cell viability [24]	cell viability [25]	cell viability [26]	cell viability [27]	cell viability [28]	cell viability [29]	cell viability [30]	cell viability [31]	cell viability [32]	cell viability [33]
COC(=O)[C@H](c1ccccc1Cl)N1CCc2sccc2C1	95.8%	99.1%	100%	109%	108%	113%	107%	110%	102%	15.7%	12.9%	101%	113%	120%	117%	120%	125%	122%	113%	115%	21.4%	14.1%	91.6%	105%	109%	111%	115%	111%	118%	117%	104%	45.9%	18.7%
C1COC(NC(C2CC2)C2CC2)=N1	82.7%	92%	84.2%	94.6%	88.9%	90.7%	95.5%	85.4%	88.9%	100%	77.1%	89.2%	103%	106%	98.4%	103%	97.6%	93.8%	91.3%	94.6%	95.5%	77.7%	79.5%	80.5%	87.1%	91.6%	87.2%	82.4%	88.6%	83.4%	91.6%	89.3%	58.8%
C[C@H](Cc1ccc(O)c(O)c1)[C@@H](C)Cc1ccc(O)c(O)c1	115%	114%	120%	122%	118%	116%	117%	116%	114%	87.5%	18.1%	125%	130%	123%	128%	130%	126%	118%	125%	115%	75.9%	16.3%	124%	121%	119%	118%	124%	120%	109%	114%	115%	70.9%	20.6%
C[C@@H](N)C1CC[C@@H](CC1)C(=O)NC2=CC=NC=C2 (stereo partly drawn)	109%	112%	111%	115%	112%	113%	123%	116%	125%	116%	104%	117%	109%	115%	125%	118%	127%	121%	114%	118%	109%	112%	110%	121%	119%	122%	121%	130%	124%	134%	120%	121%	118%
CCCCCN(CCC12CC3CC(CC(C3)C1)C2)C(=O)NCCCc1ccncc1	113%	112%	110%	114%	115%	104%	109%	108%	104%	97.1%	97.8%	101%	109%	112%	107%	107%	105%	111%	106%	109%	92.7%	99.1%	115%	110%	109%	118%	114%	114%	109%	113%	105%	101%	98.9%
N#Cc1ccnc(N2C(=O)CC[C@H]2C(=O)N(c2cncc(F)c2)[C@H](C(=O)NC2CC(F)(F)C2)c2ccccc2Cl)c1	91.1%	95.2%	93.7%	95.4%	94.9%	97%	74.8%	48.3%	10.1%	10.1%	15.5%	88%	90.2%	95.4%	93.1%	90.5%	90.5%	80.5%	71.5%	25.4%	16.2%	7.62%	95.5%	89.9%	88.5%	96.7%	97.5%	95.6%	85%	83.7%	35.6%	26.2%	18.8%
Cc1cccc(-c2[nH]c(C(C)(C)C)nc2-c2ccc3c(c2)OCO3)n1	105%	109%	110%	107%	102%	105%	110%	105%	100%	17.5%	11.1%	98.4%	102%	92.8%	106%	96.9%	97%	94.1%	96.2%	98.6%	14%	8.01%	102%	112%		108%	101%	101%	106%	95.9%	96%	37.1%	19.6%
N=C(N)NC(=N)N1CCOCC1	104%	108%	107%	113%	106%	116%	109%	104%	106%	103%	108%	103%	98.3%	90.7%	93.2%	97.8%	98.1%	99.7%	93.5%	87.8%	92.5%	92.4%	101%	105%	92.4%	102%	109%	93.8%	99.8%	96.8%	91.2%	86.8%	98.9%

From the supplement of paper PMC11451515
